Data taken from patent publication US10828303B2, “Composition comprising combination of TRH analog with arundic acid, and pharmaceutically acceptable salt of arundic acid” (Brivention Pharmaceutical (Shanghai) Inc., priority 2016, dated 2020).

Assays:
[1] = tested on: rats with anoxia-induced amnesia; conditions: Non-patent Literature 1; cited from earlier work
[2] = tested on: hippocampal CA1 neuronal cells; experiment: HE staining of hippocampus CA1, degree of neuronal death; format: in vivo, rat; conditions: HE-stained specimens after 28 days of administration; arundic acid 30, taltirelin 10, combination 10+3 mg/kg/day
Experimental: After completion of the Transfer test, the rats were anesthetized, and the chest cavity was opened to expose the heart. A ventricle was incised to insert a catheter from the heart to the carotid artery, and 50 mL or more of heparinized physiological saline was perfused. Subsequently, 50 mL or more of 4% paraformaldehyde phosphate buffer was perfused. The perfusion procedures were performed with ligation of the main artery. After perfusion-fixation, the brain was removed and immersion-fixed in 4% paraformaldehyde phosphate buffer.
20-μm serial thick frozen sections were prepared from this brain using a cryostat. Alternating serial sections were stained with hematoxylin-eosin. The degree of neuronal death in the stained tissue was semi-quantitatively evaluated under an optical microscope.

[3] = tested on: patients with Alzheimer's disease or patients with cerebrovascular dementia; conditions: reported in literature; cited from earlier work
[4] = Body weight changes in four-vessel occlusion rats; format: in vivo, rat; conditions: for Body weight, Day 7 / Body weight, Day 14 / Body weight, Day 21 / Body weight, Day 28 / Body weight, Day 0: Mean ± S.E.; for Body weight, Day 7 / Body weight, Day 14 / Body weight, Day 21 / Body weight, Day 28: 4-VO rats, oral daily: arundic acid 30, taltirelin 10, combination 10+3 mg/kg/day; for Body weight, Day 0: before administration, one week after 4-VO surgery, groups later given arundic acid 30, taltirelin 10, combination 10+3 mg/kg/day; for Body weight change in words: compared with Group 2 (control), until day 28, arundic acid 30, taltirelin 10, combination 10+3 mg/kg/day
Experimental: 7-week-old (body weight: 200 to 240 g) male Crl: Wistar rats were used for an experiment after acclimation for 1 week or more. During the experimental period, the rats were raised in an animal room maintained at a room temperature of 23±1° C. and a humidity of 55±5%, and illuminated for 12 hours (6:30-18:30); with ad libitum access to food (Oriental Yeast, CRF-1) and water.
Arundic acid ((R)-(−)-2-propyloctanoic acid: Lot No. CS04818-503, M.W.186.29, specific gravity: 0.908), which is an astrocyte function-improving agent, used in this test is a product synthesized by Chemical Soft Co., Ltd. Taltirelin hydrate (hereinafter referred to as taltirelin, M.W.463.47: N-[(4S)-1-methyl-2,6-dioxohexahydropyrimidine-4-carbonyl]-L-histidyl-L-prolinamide (Lot No. N16P)), which is a ataxia-improving agent, used in this test is a product purchased from Matrix Scientific. When arundic acid was to be administered at a dose of 30 mg/kg/5 mL, 1.61 mL of 1N NaOH was added to 300 mg (306 μL) of arundic acid to dissolve the arundic acid, and 48.084 mL of water or 0.5% CMC (carboxymethyl cellulose) was added to the resulting solution to make a total volume of 50 mL. In the experiment, a 10-fold concentrated arundic acid solution was prepared and adjusted for the concentration before use. When taltirelin was to be administered at a dose of 3 mg/kg or 10 mg/kg, taltirelin was dissolved in distilled water in a volume of 5 ml/kg. The test drug(s) were orally administered for 28 days (including Saturdays, Sundays, and public holidays), starting from 1 week after preparation of four-vessel occlusion models.
Five groups of rats (4 to 6 rats per group) were used. The details are as follows. Group 1 is a group that was not subjected to four-vessel occlusion. Groups 2 to 5 are groups that were subjected to four-vessel occlusion.
A vertebral artery cauterization surgery was performed in accordance with the method of Pulsinelli & Brierley (Pulsinelli, W. A. and Brierley, J. B.: Stroke 10, 267, 1979). More specifically, the rats anesthetized with Nem-ravona (registered trademark) and Butal (registered trademark) were fixed in the prone position to a brain stereotaxic apparatus, and the dorsal cervical skin and muscle layer were incised to expose the first cervical vertebra. The tips of the tweezers of a bipolar coagulator (Mizuho Ikakogyo Co., Ltd.; MICROID) were inserted into the alar foramina on both sides of the first cervical vertebra, and the vertebral artery running upward toward the cerebral base was bilaterally cut off by electrocauterization. The skin was then sutured. Subsequently, the rats were fixed again in the supine position to an experimental surgical table, and the ventral cervical skin was incised. After the bilateral common carotid arteries were separated from surrounding tissues and silk thread was looped around the arteries, the skin was sutured. After completion of the surgery, the rats were returned to a cage and observed. No behavioral abnormality was confirmed.
Twenty-four hours after vertebral artery cauterization by the above method, the rats under isoflurane inhalation anesthesia were fixed in the supine position for immobilization before common carotid artery ligation on the following day. The ventral cervical skin was incised again to expose bilateral common carotid arteries. First, the right-side common carotid artery was occluded with an artery clamp or Mosquito hemostat forceps (both forceps were covered with a silicone tube to reduce stimulus to the blood vessel wall). After about 60 seconds, the left-side common carotid artery was occluded in the same manner. Since righting reflex (RR) of rats during bilateral common carotid artery occlusion, i.e., rats with brain ischemia, was lost, immobilization in the supine-position seemed unnecessary. However, sudden movements, such as walking-like motions of four limbs or lateral turning, were observed. […]

[5] = tested on: rats with lesioned bilateral regions including the ventral globus pallidus, substantia innominata, and preoptic area (BFs); conditions: Non-patent Literature 1; cited from earlier work
[6] = tested on: reactive astrocytes; conditions: Patent Literature 2; cited from earlier work

SMILES	Memory retrieval, one-trial passive avoidance learning test [1]	Hippocampal CA1 neuronal cell death / regeneration, in words [2]	Improvement effect compared with TRH [3]	Body weight, Day 7 [4] [g]	Body weight, Day 14 [4] [g]	Body weight, Day 21 [4] [g]	Body weight, Day 28 [4] [g]	Body weight, Day 0 [4] [g]	Body weight change in words [4]	Memory retrieval, active avoidance learning test [5]	GABAA receptor responsiveness [6]
CN1C(=O)C[C@@H](C(=O)N[C@@H](Cc2c[nH]cn2)C(=O)N2CCC[C@H]2C(N)=O)NC1=O [Taltirelin, N-[(4S)-1-methyl-2,6-dioxohexahydropyrimidine-4-carbonyl]-L-histidyl-L-prolinamide]	improve memory retrieval	shedding was observed	higher improvement effect thereon than TRH	256.6 ± 8.7	272.3 ± 10.3	291.3 ± 12.0	307.2 ± 12.2	228.6 ± 4.5	favorable body weight increase	improve memory retrieval	–
CCCCCC[C@@H](CCC)C(=O)O [Arundic acid, (R)-(−)-2-propyloctanoic acid]	–	promoted regeneration of hippocampal CA1 neuronal cells	–	255.5 ± 5.1	272.6 ± 7.4	288.0 ± 7.1	308.5 ± 5.0	228.7 ± 4.9	favorable body weight increase	–	GABAA receptor responsiveness is recovered
